According to ChEMBL document CHEMBL1201862, “PubChem BioAssay data set” (2004):
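Briefly, cells in 96-well plates were exposed to five compound concentrations for 48 h, and endpoints were estimated by linear interpolation. The concentration for 50% growth inhibition is given as GI50.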 Calls of active or inactive are those of the source. Cut-off read from the data, not from the text of the source: active = GI50 up to about 1.1 µM and inactive = higher.

Assays:
Assay in all cases: DTP human tumour cell line panel, 48 h
786-0 = test system: 786-0
A498 = test system: A498
A549 = test system: A549
ACHN = test system: ACHN
BT-549 = test system: BT-549
CAKI-1 = test system: CAKI-1
CCRF-CEM = test system: CCRF-CEM
COLO 205 = test system: COLO 205
DLD-1 = test system: DLD-1
DMS-273 = test system: DMS-273
DU-145 = test system: DU-145
EKVX = test system: EKVX
HCC 2998 = test system: HCC 2998
HCT-116 = test system: HCT-116
HCT-15 = test system: HCT-15
HL-60 = test system: HL-60
HOP-18 = test system: HOP-18
HOP-62 = test system: HOP-62
HOP-92 = test system: HOP-92
HT-29 = test system: HT-29
Hs-578T = test system: Hs-578T
IGROV-1 = test system: IGROV-1
K562 = test system: K562
KM-20L2 = test system: KM-20L2
KM12 = test system: KM12
LOX IMVI = test system: LOX IMVI
M14 = test system: M14
M19-MEL = test system: M19-MEL
MCF7 = test system: MCF7
MDA-MB-231 = test system: MDA-MB-231
MDA-N = test system: MDA-N
MOLT-4 = test system: MOLT-4
Malme-3M = test system: Malme-3M
NCI-H226 = test system: NCI-H226
NCI-H23 = test system: NCI-H23
NCI-H460 = test system: NCI-H460
NCI-H522 = test system: NCI-H522
NCI/ADR-RES = test system: NCI/ADR-RES
OVCAR-3 = test system: OVCAR-3
OVCAR-4 = test system: OVCAR-4
OVCAR-5 = test system: OVCAR-5
OVCAR-8 = test system: OVCAR-8
PC-3 = test system: PC-3
RPMI-8226 = test system: RPMI-8226
RXF 393 = test system: RXF 393
SF-268 = test system: SF-268
SF-295 = test system: SF-295
SF-539 = test system: SF-539
SK-MEL-28 = test system: SK-MEL-28
SK-MEL-2 = test system: SK-MEL-2
SK-MEL-5 = test system: SK-MEL-5
SK-OV-3 = test system: SK-OV-3
SN12C = test system: SN12C
SNB-19 = test system: SNB-19
SNB-75 = test system: SNB-75
SR = test system: SR
SW-620 = test system: SW-620
T47D = test system: T47D
TK-10 = test system: TK-10
U-251 = test system: U-251
UACC-257 = test system: UACC-257
UACC-62 = test system: UACC-62
UO-31 = test system: UO-31
XF498 = test system: XF498
DMS-114 = test system: DMS-114
LXFL 529 = test system: LXFL 529
SNB-78 = test system: SNB-78

Cc1c(-c2ccc(-c3ccccc3F)cc2)nc2ccc(F)cc2c1C(=O)O [BREQUINAR SODIUM]
GI50 (786-0): 0.195 µM (active)
GI50 (A498): 49.8 µM (inactive)
GI50 (A549): 0.234 µM (active)
GI50 (ACHN): 0.153 µM (active)
GI50 (BT-549): 155 µM (inactive)
GI50 (CAKI-1): 0.904 µM (active)
GI50 (CCRF-CEM): 0.284 µM (active)
GI50 (COLO 205): 0.519 µM (active)
GI50 (DLD-1): 0.0875 µM (active)
GI50 (DMS-273): 0.193 µM (active)
GI50 (DU-145): 0.262 µM (active)
GI50 (EKVX): 16 µM (inactive)
GI50 (HCC 2998): 9.62 µM (inactive)
GI50 (HCT-116): 0.104 µM (active)
GI50 (HCT-15): 0.0566 µM
GI50 (HL-60): 0.479 µM (active)
GI50 (HOP-18): 46.1 µM (inactive)
GI50 (HOP-62): 1.1 µM (active)
GI50 (HOP-92): 35.2 µM (inactive)
GI50 (HT-29): 0.374 µM (active)
GI50 (Hs-578T): 6.93 µM (inactive)
GI50 (IGROV-1): 0.303 µM (active)
GI50 (K562): 0.143 µM (active)
GI50 (KM-20L2): 0.615 µM (active)
GI50 (KM12): 0.211 µM (active)
GI50 (LOX IMVI): 0.0931 µM (active)
GI50 (M14): 4.7 µM (inactive)
GI50 (M19-MEL): 1.2 µM (inactive)
GI50 (MCF7): 0.267 µM (active)
GI50 (MDA-MB-231): 9.93 µM (inactive)
GI50 (MDA-N): 0.631 µM (active)
GI50 (MOLT-4): 0.0887 µM (active)
GI50 (Malme-3M): 15.4 µM (inactive)
GI50 (NCI-H226): 19.5 µM (inactive)
GI50 (NCI-H23): 21.5 µM (inactive)
GI50 (NCI-H460): 0.128 µM (active)
GI50 (NCI-H522): 2 µM (inactive)
GI50 (NCI/ADR-RES): 2.18 µM (inactive)
GI50 (OVCAR-3): 3.74 µM (inactive)
GI50 (OVCAR-4): 2.73 µM (inactive)
GI50 (OVCAR-5): 38.8 µM (inactive)
GI50 (OVCAR-8): 0.325 µM (active)
GI50 (PC-3): 0.5 µM (active)
GI50 (RPMI-8226): 0.373 µM (active)
GI50 (RXF 393): 11.7 µM (inactive)
GI50 (SF-268): 0.372 µM (active)
GI50 (SF-295): 0.243 µM (active)
GI50 (SF-539): 0.346 µM (active)
GI50 (SK-MEL-28): 9.93 µM (inactive)
GI50 (SK-MEL-2): 61.8 µM (inactive)
GI50 (SK-MEL-5): 1.39 µM (inactive)
GI50 (SK-OV-3): 16.1 µM (inactive)
GI50 (SN12C): 1.79 µM (inactive)
GI50 (SNB-19): 1.25 µM (inactive)
GI50 (SNB-75): 30.3 µM (inactive)
GI50 (SR): 0.427 µM (active)
GI50 (SW-620): 0.384 µM (active)
GI50 (T47D): 16.9 µM (inactive)
GI50 (TK-10): 16.3 µM (inactive)
GI50 (U-251): 0.194 µM (active)
GI50 (UACC-257): 12.5 µM (inactive)
GI50 (UACC-62): 0.265 µM (active)
GI50 (UO-31): 1.14 µM (inactive)
GI50 (XF498): 18.1 µM (inactive)

CN(C)c1ccc(/C=C/C(=O)O)cc1
GI50 (A498): > 100 µM (inactive)
GI50 (A549): > 100 µM (inactive)
GI50 (ACHN): > 100 µM (inactive)
GI50 (CAKI-1): > 100 µM (inactive)
GI50 (CCRF-CEM): > 100 µM (inactive)
GI50 (COLO 205): > 100 µM (inactive)
GI50 (DLD-1): > 100 µM (inactive)
GI50 (DMS-114): > 100 µM (inactive)
GI50 (EKVX): > 100 µM (inactive)
GI50 (HCC 2998): > 100 µM (inactive)
GI50 (HCT-116): > 100 µM (inactive)
GI50 (HCT-15): > 100 µM
GI50 (HL-60): > 100 µM (inactive)
GI50 (HOP-18): > 100 µM (inactive)
GI50 (HOP-62): > 100 µM (inactive)
GI50 (HT-29): > 100 µM (inactive)
GI50 (IGROV-1): > 100 µM (inactive)
GI50 (K562): > 100 µM (inactive)
GI50 (KM-20L2): > 100 µM (inactive)
GI50 (KM12): > 100 µM (inactive)
GI50 (LOX IMVI): > 100 µM (inactive)
GI50 (LXFL 529): > 100 µM (inactive)
GI50 (M14): > 100 µM (inactive)
GI50 (M19-MEL): > 100 µM (inactive)
GI50 (MOLT-4): > 100 µM (inactive)
GI50 (Malme-3M): > 100 µM (inactive)
GI50 (NCI-H226): > 100 µM (inactive)
GI50 (NCI-H460): > 100 µM (inactive)
GI50 (NCI-H522): > 100 µM (inactive)
GI50 (OVCAR-3): 49.3 µM (inactive)
GI50 (OVCAR-5): > 100 µM (inactive)
GI50 (OVCAR-8): > 100 µM (inactive)
GI50 (RPMI-8226): > 100 µM (inactive)
GI50 (SF-268): > 100 µM (inactive)
GI50 (SF-295): > 100 µM (inactive)
GI50 (SF-539): > 100 µM (inactive)
GI50 (SK-MEL-2): > 100 µM (inactive)
GI50 (SK-MEL-5): > 100 µM (inactive)
GI50 (SK-OV-3): > 100 µM (inactive)
GI50 (SN12C): > 100 µM (inactive)
GI50 (SNB-19): > 100 µM (inactive)
GI50 (SNB-75): > 100 µM (inactive)
GI50 (SNB-78): > 100 µM (inactive)
GI50 (SW-620): > 100 µM (inactive)
GI50 (UACC-257): > 100 µM (inactive)
GI50 (UACC-62): > 100 µM (inactive)
GI50 (UO-31): > 100 µM (inactive)
GI50 (XF498): > 100 µM (inactive)

COC(c1cccc(C(O)(C(F)(F)F)C(F)(F)F)c1)(C(F)(F)F)C(F)(F)F
GI50 (786-0): 17.6 µM (inactive)
GI50 (A498): 20.1 µM (inactive)
GI50 (A549): 16.6 µM (inactive)
GI50 (ACHN): 15.8 µM (inactive)
GI50 (CAKI-1): 24.4 µM (inactive)
GI50 (COLO 205): 19.3 µM (inactive)
GI50 (DLD-1): 20.3 µM (inactive)
GI50 (DMS-114): 18.6 µM (inactive)
GI50 (DMS-273): 19.3 µM (inactive)
GI50 (EKVX): 17.9 µM (inactive)
GI50 (HCC 2998): 8.79 µM (inactive)
GI50 (HCT-116): 16.9 µM (inactive)
GI50 (HCT-15): 19.1 µM
GI50 (HOP-18): 18.2 µM (inactive)
GI50 (HOP-62): 19.1 µM (inactive)
GI50 (HT-29): 17.5 µM (inactive)
GI50 (IGROV-1): 20.2 µM (inactive)
GI50 (KM-20L2): 16.9 µM (inactive)
GI50 (KM12): 19.5 µM (inactive)
GI50 (LOX IMVI): 17.5 µM (inactive)
GI50 (LXFL 529): 17.5 µM (inactive)
GI50 (M14): 18.7 µM (inactive)
GI50 (M19-MEL): 16.1 µM (inactive)
GI50 (MOLT-4): 22 µM (inactive)
GI50 (Malme-3M): 19.4 µM (inactive)
GI50 (NCI-H226): 18.2 µM (inactive)
GI50 (NCI-H23): 19.7 µM (inactive)
GI50 (NCI-H460): 18.3 µM (inactive)
GI50 (NCI-H522): 13.5 µM (inactive)
GI50 (OVCAR-3): 23.4 µM (inactive)
GI50 (OVCAR-4): 16.7 µM (inactive)
GI50 (OVCAR-5): 18.4 µM (inactive)
GI50 (OVCAR-8): 24.6 µM (inactive)
GI50 (RXF 393): 20.4 µM (inactive)
GI50 (SF-268): 23.7 µM (inactive)
GI50 (SF-295): 15.7 µM (inactive)
GI50 (SF-539): 19.2 µM (inactive)
GI50 (SK-MEL-28): > 10 µM (inactive)
GI50 (SK-MEL-2): 18.2 µM (inactive)
GI50 (SK-OV-3): 20.1 µM (inactive)
GI50 (SN12C): 18.3 µM (inactive)
GI50 (SNB-19): 19.4 µM (inactive)
GI50 (SNB-75): 17.5 µM (inactive)
GI50 (SR): 32.1 µM (inactive)
GI50 (SW-620): 18.8 µM (inactive)
GI50 (TK-10): 22.1 µM (inactive)
GI50 (U-251): 18.3 µM (inactive)
GI50 (UACC-257): 27.1 µM (inactive)
GI50 (UACC-62): 14.3 µM (inactive)
GI50 (UO-31): 19.9 µM (inactive)
GI50 (XF498): 15 µM (inactive)
